Experiment [1] deals with T1, human MetAP2 enzyme (Homo sapiens, UniProt P50579). The experiment in a line: MetAP2 enzyme assay, MetAP2 enzyme complexed with cobalt ions. The note with it: MetAP2 Co pIC50, 10 μM CoCl2; -log(IC50), IC50 molar.
Protocol: DNA encoding the full-length sequence of human MetAP2 enzyme is amplified by PCR and cloned into a pFastBac expression vector (Invitrogen). Recombinant baculovirus incorporating the MetAP2 construct is generated by transposition using the Bac-to-Bac system (Invitrogen). The expression of recombinant protein is carried out by infection of Spodoptera frugiperda Sf9 cells (Invitrogen) in 5L Wave Bioreactors (Wave Biotech). Recombinant protein is isolated from cellular extracts by binding to an SP Hitrap Fast Flow or SP Sepharose (Sigma) column, and the protein is eluted using a NaCl gradient. Partially purified extracts of MetAP2 are further purified by an AKTA FPLC over a Superdex-200 column (GE). The purity of MetAP2 protein is determined on denaturing SDS-PAGE gel.
The results for each well are expressed as percent inhibition and calculated using the equation:
In experiment [2] the target is T1, human MetAP2 enzyme. The experiment in a line: MetAP2 enzyme assay, MetAP2 enzyme complexed with manganese ions. The note with it: MetAP2 Mn pIC50, 10 μM MnCl2; -log(IC50), IC50 molar.

A word on the IC50: it is the point on the concentration scale where inhibition reaches its midpoint. A high value points to weaker potency in that assay.

T1 sequence (P50579 whole entry): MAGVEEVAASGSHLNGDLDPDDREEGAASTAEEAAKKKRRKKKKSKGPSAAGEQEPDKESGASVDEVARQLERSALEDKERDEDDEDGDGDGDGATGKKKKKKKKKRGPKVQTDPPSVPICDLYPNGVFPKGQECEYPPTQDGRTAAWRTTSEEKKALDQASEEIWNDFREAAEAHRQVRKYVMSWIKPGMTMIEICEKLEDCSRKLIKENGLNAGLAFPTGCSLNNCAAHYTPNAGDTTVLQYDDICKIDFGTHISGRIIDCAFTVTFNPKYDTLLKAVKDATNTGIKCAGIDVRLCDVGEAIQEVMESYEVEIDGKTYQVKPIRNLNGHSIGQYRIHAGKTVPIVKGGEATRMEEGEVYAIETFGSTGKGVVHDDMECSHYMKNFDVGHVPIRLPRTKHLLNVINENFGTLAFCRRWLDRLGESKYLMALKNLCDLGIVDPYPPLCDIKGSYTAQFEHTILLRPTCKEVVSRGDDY

As to `Cc1nc(C(=O)NCCC#N)ccc1-n1c2ccc(F)cc2c2[nH]ncc21` [Example 122, N-(2-Cyanoethyl)-5-(7-fluoropyrazolo[4,3-b]indol-4(1H)-yl)-6-methylpicolinamide], the IC50 in experiment [1] and in experiment [2] was 7.94 nM throughout.

With `Cc1nc(N2CCNCC2)ccc1-n1c2ccc(F)cc2c2[nH]ncc21` [Example 64, 7-Fluoro-4-(2-methyl-6-(piperazin-1-yl)pyridin-3-yl)-1,4-dihydropyrazolo[4,3-b]indole], the IC50 in experiment [1] is 15.8 nM; in experiment [2] it was 12.6 nM.

Turning to `COCc1[nH]ncc1-n1c2ccc(F)cc2c2[nH]ncc21` [Example 65, 7-Fluoro-4-(5-(methoxymethyl)-1H-pyrazol-4-yl)-1,4-dihydropyrazolo[4,3-b]indole], the IC50 in experiment [1] was 12.6 nM; in experiment [2], 10 nM.

Take `Cc1nc(C(=O)N(C)CC#N)ccc1-n1c2ccc(F)cc2c2[nH]ncc21` [Example 121, N-(Cyanomethyl)-5-(7-fluoropyrazolo[4,3-b]indol-4(1H)-yl)-N,6-dimethylpicolinamide]: the half-inhibitory concentration (IC50) in experiment [1] is 20 nM; in experiment [2], 15.8 nM.

Turning to `CNc1cc(C)c(-n2c3ccc(F)cc3c3[nH]ncc32)cn1` [Example 45, 5-(7-Fluoropyrazolo[4,3-b]indol-4(1H)-yl)-N,4-dimethylpyridin-2-amine], the figures for the IC50 in experiment [1] and in experiment [2] were 6.31 nM and 12.6 nM, respectively.

For `Cc1cc(N(C)CCO)ncc1-n1c2ccc(F)cc2c2[nH]ncc21` [Example 63, 2-((5-(7-Fluoropyrazolo[4,3-b]indol-4(1H)-yl)-4-methylpyridin-2-yl)(methyl)amino)ethanol], the 50% inhibitory concentration (IC50) in experiment [1] and in experiment [2] was 15.8 nM each time.

For `Cc1cc2cnn(C)c2cc1-n1c2ccc(F)cc2c2[nH]ncc21` [Example 14, 4-(1,5-Dimethyl-1H-indazol-6-yl)-7-fluoro-1,4-dihydropyrazolo[4,3-b]indole], the IC50 in experiment [1] and in experiment [2] was 7.94 nM in each case.

Turning to `Cc1nc(N2CC[C@H](S(C)(=O)=O)C2)ncc1-n1c2ccc(F)cc2c2[nH]ncc21` [Example 137, 7-Fluoro-4-(4-methyl-2-((S)-3-(methylsulfonyl)pyrrolidin-1-yl)pyrimidin-5-yl)-1,4-dihydropyrazolo[4,3-b]indole], the half-inhibitory concentration (IC50) in experiment [1] is 10 nM; in experiment [2], 6.31 nM.

For `Cc1nc(C(=O)N2CC(C#N)C2)ccc1-n1c2ccc(F)cc2c2[nH]ncc21` [Example 125, 1-(5-(7-Fluoropyrazolo[4,3-b]indol-4(1H)-yl)-6-methylpicolinoyl)azetidine-3-carbonitrile], the IC50 in experiment [1] is 12.6 nM; in experiment [2], 10 nM.

Regarding `Fc1ccc2c(c1)c1[nH]ncc1n2-c1cnn2c1CNCC2` [Example 25, 7-Fluoro-4-(4,5,6,7-tetrahydropyrazolo[1,5-a]pyrazin-3-yl)-1,4-dihydropyrazolo[4,3-b]indole], the IC50 in experiment [1] was 25.1 nM; in experiment [2], 12.6 nM.

In the case of `CN1CCN(C(=O)c2ccc(Cn3c4ccc(F)cc4c4[nH]ncc43)cc2)CC1` [Example 53, (4-((7-Fluoropyrazolo[4,3-b]indol-4(1H)-yl)methyl)phenyl)(4-methylpiperazin-1-yl)methanone], the results for the IC50 in experiment [1] and in experiment [2] were 50.1 nM and 79.4 nM, respectively.

As for `Cc1nc(N2CC[C@H](C(=O)NCCO)C2)ncc1-n1c2ccc(F)cc2c2[nH]ncc21` [Example 103, (3S)-1-(5-(7-Fluoropyrazolo[4,3-b]indol-4(1H)-yl)-4-methylpyrimidin-2-yl)-N-(2-hydroxyethyl)pyrrolidine-3-carboxamide], the IC50 in experiment [1] was 6.31 nM; in experiment [2], 10 nM.

In the case of `Cc1nc(N2CCC(C#N)CC2)ncc1-n1c2ccc(F)cc2c2[nH]ncc21` [Example 56, 1-(5-(7-Fluoropyrazolo[4,3-b]indol-4(1H)-yl)-4-methylpyrimidin-2-yl)piperidine-4-carbonitrile], the IC50 in experiment [1] is 12.6 nM; in experiment [2], 7.94 nM.

For the compound `CNC(=O)[C@@H]1CCCN1c1ncc(-n2c3ccc(F)cc3c3[nH]ncc32)c(C)n1` [Example 38, (2S)-1-(5-(7-Fluoropyrazolo[4,3-b]indol-4(1H)-yl)-4-methylpyrimidin-2-yl)-N-methylpyrrolidine-2-carboxamide], the IC50 in experiment [1] was 6.31 nM; in experiment [2] it was 7.94 nM.

As for `Cc1c(-n2c3ccc(F)cc3c3[nH]ncc32)cnc2[nH]c(=O)[nH]c12` [Example 28, 6-(7-Fluoropyrazolo[4,3-b]indol-4(1H)-yl)-7-methyl-1H-imidazo[4,5-b]pyridin-2(3H)-one], the IC50 in experiment [1] was 6.31 nM; in experiment [2], 5.01 nM.

In the case of `Cc1nc(N2CCO[C@@H](CO)C2)ncc1-n1c2ccc(F)cc2c2[nH]ncc21` [Example 77, ((2R)-4-(5-(7-Fluoropyrazolo[4,3-b]indol-4(1H)-yl)-4-methylpyrimidin-2-yl)morpholin-2-yl)methanol], the IC50 is 7.94 nM in experiment [1] and 10 nM in experiment [2].

As to `OCc1nn(C(F)F)cc1-n1c2ccc(F)cc2c2[nH]ncc21` [Example 134, (1-(Difluoromethyl)-4-(7-fluoropyrazolo[4,3-b]indol-4(1H)-yl)-1H-pyrazol-3-yl)methanol], the IC50 in experiment [1] was 15.8 nM; in experiment [2] it was 6.31 nM.

On to `Cc1nc(N2CCNC(=O)C2)ncc1-n1c2ccc(F)cc2c2[nH]ncc21` [Example 44, 4-(5-(7-Fluoropyrazolo[4,3-b]indol-4(1H)-yl)-4-methylpyrimidin-2-yl)piperazin-2-one], for which the IC50 in experiment [1] was 7.94 nM; in experiment [2], 10 nM.

In the case of `Cc1nc2[nH]c(=O)n(CCO)c2cc1-n1c2ccc(F)cc2c2[nH]ncc21` [Example 32, 6-(7-Fluoropyrazolo[4,3-b]indol-4(1H)-yl)-1-(2-hydroxyethyl)-5-methyl-1H-imidazo[4,5-b]pyridin-2(3H)-one], the IC50 in experiment [1] is 7.94 nM; in experiment [2], 10 nM.

For the compound `Cc1nc(N2CC[C@H](F)C2)ncc1-n1c2ccc(F)cc2c2[nH]ncc21` [Example 34, 7-Fluoro-4-(2-((S)-3-fluoropyrrolidin-1-yl)-4-methylpyrimidin-5-yl)-1,4-dihydropyrazolo[4,3-b]indole], the IC50 in experiment [1] was 63.1 nM; in experiment [2], 79.4 nM.

In the case of `Cc1ccc(-n2c3ccc(F)cc3c3[nH]ncc32)c(C)n1` [Example 10, 4-(2,6-Dimethylpyridin-3-yl)-7-fluoro-1,4-dihydropyrazolo[4,3-b]indole], the results for the IC50 in experiment [1] and in experiment [2] were 12.6 nM and 7.94 nM, respectively.

In the case of `Cc1nc2c(cc1-n1c3ccc(F)cc3c3[nH]ncc31)ncn2CCS(C)(=O)=O` [Example 116, 7-Fluoro-4-(5-methyl-3-(2-(methylsulfonyl)ethyl)-3H-imidazo[4,5-b]pyridin-6-yl)-1,4-dihydropyrazolo[4,3-b]indole], the values for the IC50 in experiment [1] and in experiment [2] were 12.6 nM and 3.98 nM, respectively.

As for `Cc1nc(C(=O)NC[C@H](C)O)ccc1-n1c2ccc(F)cc2c2[nH]ncc21` [Example 126, 5-(7-Fluoropyrazolo[4,3-b]indol-4(1H)-yl)-N-((2S)-2-hydroxypropyl)-6-methylpicolinamide], the IC50 in experiment [1] and in experiment [2] was 10 nM each time.

As to `Cn1nc(C(N)=O)cc1-n1c2ccc(F)cc2c2[nH]ncc21` [Example 48, 5-(7-Fluoropyrazolo[4,3-b]indol-4(1H)-yl)-1-methyl-1H-pyrazole-3-carboxamide], the IC50 in experiment [1] is 15.8 nM; in experiment [2] it was 12.6 nM.

Take `Cc1nc(NC[C@H](C)O)ncc1-n1c2ccc(F)cc2c2[nH]ncc21` [Example 92, (2S)-1-((5-(7-Fluoropyrazolo[4,3-b]indol-4(1H)-yl)-4-methylpyrimidin-2-yl)amino)propan-2-ol]: the values for the IC50 in experiment [1] and in experiment [2] were 10 nM and 7.94 nM, respectively.

Regarding `Cc1cccc(-n2c3ccc(F)cc3c3[nH]ncc32)n1` [Example 11, 7-Fluoro-4-(6-methylpyridin-2-yl)-1,4-dihydropyrazolo[4,3-b]indole], the half-inhibitory concentration (IC50) was 100 nM in experiment [1] and 6.31 nM in experiment [2].

For `Cc1nc(N2CCN(C)C(=O)C2)ncc1-n1c2ccc(F)cc2c2[nH]ncc21` [Example 39, 4-(5-(7-Fluoropyrazolo[4,3-b]indol-4(1H)-yl)-4-methylpyrimidin-2-yl)-1-methylpiperazin-2-one], the IC50 in experiment [1] is 6.31 nM; in experiment [2], 7.94 nM.

For the compound `Cc1nc2c(cc1-n1c3ccc(F)cc3c3[nH]ncc31)[nH]c(=O)n2C[C@H](O)CO` [Example 33, 3-((S)-2,3-Dihydroxypropyl)-6-(7-fluoropyrazolo[4,3-b]indol-4(1H)-yl)-5-methyl-1H-imidazo[4,5-b]pyridin-2(3H)-one], the values for the IC50 in experiment [1] and in experiment [2] were 7.94 nM and 10 nM, respectively.

For the compound `N#Cc1[nH]ncc1-n1c2ccc(F)cc2c2[nH]ncc21` [Example 22, 4-(7-Fluoropyrazolo[4,3-b]indol-4(1H)-yl)-1H-pyrazole-5-carbonitrile], the IC50 in experiment [1] is 31.6 nM; in experiment [2], 10 nM.

Regarding `Cc1nc(N2CCC(O)CC2)ncc1-n1c2ccc(F)cc2c2[nH]ncc21` [Example 78, 1-(5-(7-Fluoropyrazolo[4,3-b]indol-4(1H)-yl)-4-methylpyrimidin-2-yl)piperidin-4-ol], the IC50 in experiment [1] was 15.8 nM; in experiment [2] it was 10 nM.

Regarding `Cc1c(-n2c3ccc(F)cc3c3[nH]ncc32)cnc(N)c1C` [Example 68, 5-(7-Fluoropyrazolo[4,3-b]indol-4(1H)-yl)-3,4-dimethylpyridin-2-amine], the IC50 is 10 nM in experiment [1] and 3.16 nM in experiment [2].

For the compound `Cc1nc(N2CC(O)C2)ncc1-n1c2ccc(F)cc2c2[nH]ncc21` [Example 127, 1-(5-(7-Fluoropyrazolo[4,3-b]indol-4(1H)-yl)-4-methylpyrimidin-2-yl)azetidin-3-ol], the IC50 was 7.94 nM in experiment [1] and 15.8 nM in experiment [2].

Turning to `Cc1cc2[nH]ncc2cc1-n1c2ccc(F)cc2c2[nH]ncc21` [Example 19, 7-Fluoro-4-(6-methyl-1H-indazol-5-yl)-1,4-dihydropyrazolo[4,3-b]indole], the IC50 in experiment [1] and in experiment [2] was 12.6 nM throughout.
